Tests used:
Assay type in all cases: in vivo
Conditions in all cases: 312 h, rate 250 g/ha, evaluated after 13 days, 100=total damage to plant, 0=no damage to plant
[1] = system: Echinochloa crus-galli (ECHCG); test: Pre-emergence herbicidal activity, glasshouse pot test
Experimental: (§1) Seeds of a variety of test species were sown in standard soil in pots. After cultivation for one day (pre-emergence) or after 8 days cultivation (post-emergence) under controlled conditions in a glasshouse (at 24/16° C., day/night; 14 hours light; 65% humidity), the plants were sprayed with an aqueous spray solution derived from the formulation of the technical active ingredient in acetone/water (50:50) solution containing 0.5% Tween 20 (polyoxyethelyene sorbitan monolaurate, CAS RN 9005-64-5). The test plants were then grown in a glasshouse under controlled conditions in a glasshouse (at 24/16° C., day/night; 14 hours light; 65% humidity) and watered twice daily. After 13 days for pre and post-emergence, the test was evaluated (100=total damage to plant; 0=no damage to plant). Test Plants: Lolium perenne (LOLPE), Alopecurus myosuroides (ALOMY), Echinochloa crus-galli (ECHCG), and Avena fatua (AVEFA). Pre-Emergence Activity

Avena fatua (AVEFA) [2] = test: as above
Experimental: as §1

Lolium perenne (LOLPE) [3] = test: as above
Experimental: as §1

[4] = system: Alopecurus myosuroides (ALOMY); test: as above
Experimental: as §1

[5] = system: Echinochloa crus-galli (ECHCG); test: Post-emergence herbicidal activity, glasshouse pot test
Experimental: as §1, with “Post-Emergence” for “Pre-Emergence”

Avena fatua (AVEFA) [6] = test: as above
Experimental: as §1, with “Post-Emergence” for “Pre-Emergence”

Lolium perenne (LOLPE) [7] = test: as above
Experimental: as §1, with “Post-Emergence” for “Pre-Emergence”

[8] = system: Alopecurus myosuroides (ALOMY); test: as above
Experimental: as §1, with “Post-Emergence” for “Pre-Emergence”

SMILES	pest or weed control at 250 g/ha [1]	pest or weed control at 250 g/ha (Avena fatua (AVEFA) [2])	pest or weed control at 250 g/ha (Lolium perenne (LOLPE) [3])	pest or weed control at 250 g/ha [4]	pest or weed control at 250 g/ha [5]	pest or weed control at 250 g/ha (Avena fatua (AVEFA) [6])	pest or weed control at 250 g/ha (Lolium perenne (LOLPE) [7])	pest or weed control at 250 g/ha [8]
CCc1ccc(Oc2cnc3ccc(Br)cc3n2)cc1C1=C(O)CCC1=O [Compound A-79]	90%	20%	70%	40%	50%	0%	20%	0%
CCc1ccc(Oc2ncc(Cl)cc2Cl)cc1C1=C(O)C2C(C1=O)[C@H]1CC[C@@H]2CC1 (stereo partly shown) [Compound A-90]	100%	70%	100%	70%	100%	100%	100%	90%
CCc1ccc(Oc2ccc(Br)cc2F)cc1C1=C(O)CCC1=O [Compound A-42]	30%	0%	0%	0%	70%	0%	10%	0%
CCc1ccc(Oc2ccc(C(F)(F)F)c(C#N)c2)cc1C1=C(O)CCC1=O [Compound A-70]	60%	10%	20%	0%	60%	0%	10%	0%
CCc1ccc(Oc2ccc(C#N)cc2)cc1C1=C(O)C2C(C1=O)[C@H]1CC[C@@H]2CC1 (stereo partly shown) [Compound A-15]	100%	0%	10%	30%	80%	30%	30%	30%
CCc1ccc(Oc2ccc(Cl)cc2F)cc1C1=C(O)[C@H]2[C@@H](C1=O)[C@@H]1CC[C@H]2O1 [Compound A-6]	100%	90%	100%	100%	100%	90%	90%	80%
CCc1ccc(Oc2ccc(Br)c(Cl)c2)cc1C1=C(O)[C@H]2[C@@H](C1=O)[C@@H]1CC[C@H]2O1 [Compound A-48]	90%	80%	80%	80%	90%	80%	80%	80%
CCc1ccc(Oc2ccc(Cl)cc2F)cc1C1=C(O)C2C(C1=O)[C@H]1CC[C@@H]2CC1 (stereo partly shown) [Compound A-32]	60%	0%	40%	0%	100%	90%	30%	90%
CCc1ccc(Oc2ccc(Cl)cc2)cc1C1=C(O)CCC1=O [Compound A-39]	40%	30%	0%	20%	60%	0%	10%	10%
CCc1ccc(Oc2ncc(C(F)(F)F)cc2C(F)(F)F)cc1C1=C(O)CCC1=O [Compound A-71]	100%	80%	100%	90%	100%	100%	100%	100%
CCc1ccc(Oc2nc3ccccc3s2)cc1C1=C(O)[C@H]2[C@H]3CC[C@H](C3)[C@H]2C1=O [Compound A-12]	70%	30%	70%	60%	100%	50%	70%	100%
CCc1ccc(Oc2ncc(Br)cn2)cc1C1=C(O)CCC1=O [Compound A-72]	100%	30%	70%	40%	100%	30%	30%	50%
CCc1ccc(Oc2ccc(Cl)c(F)c2)cc1C1=C(O)CCC1=O [Compound A-41]	30%	0%	0%	0%	70%	10%	20%	0%
CCc1ccc(Oc2ccc([N+](=O)[O-])c(Cl)c2)cc1C1=C(O)C2C(C1=O)[C@H]1CC[C@@H]2CC1 (stereo partly shown) [Compound A-86]	20%	0%	20%	0%	100%	10%	10%	10%
O=C1CCC(O)=C1c1cc(Oc2ccc(Cl)cc2)ccc1OC(F)(F)F [Compound A-52, 2-[5-(4-chlorophenoxy)-2-trifluoromethoxyphenyl]cyclopentane-1,3-dione]	0%	0%	0%	0%	50%	0%	0%	0%
CCc1ccc(Oc2ccc(Br)cc2)cc1C1=C(O)[C@H]2[C@H]3CC[C@H](C3)[C@H]2C1=O [Compound A-22]	90%	30%	80%	40%	100%	80%	40%	50%
CCc1ccc(Oc2ccc(OC(F)(F)F)cc2)cc1C1=C(O)[C@H]2[C@@H](C1=O)[C@@H]1CC[C@H]2O1 [Compound A-50]	100%	100%	100%	100%	100%	100%	100%	100%
CCc1ccc(Oc2ccc(Cl)cc2)cc1C1=C(O)[C@H]2[C@H]3CC[C@H](C3)[C@H]2C1=O [Compound A-24]	50%	30%	40%	10%	100%	70%	60%	60%
CCc1ccc(Oc2ccc(C(F)(F)F)cc2Br)cc1C1=C(O)CCC1=O [Compound A-80]	80%	10%	50%	0%	80%	50%	30%	40%
CCc1ccc(Oc2ccc(Br)cc2Cl)cc1C1=C(O)CCC1=O [Compound A-35]	20%	10%	60%	30%	30%	20%	20%	10%

— patent publication US8895474B2, “Herbicidally active cyclopentanediones and derivatives thereof, and their use in controlling weeds” (Syngenta Limited, priority 2009, dated 2014)
